Results from PMC4537067 (ACS infectious diseases, 2015).
Counter-ions that a name gives are not always drawn. Like-named read-outs stand apart in the source and are kept apart here.

Key:
EBOV minigenome activity [1] = test: microbe, parasite or virus in culture; assay type: cell-based, Ebola virus
EBOV minigenome activity [2] = system: EBOV minigenome activity
EBOV minigenome activity [3] = test: cells; conditions: Zaire ebolavirus, HEK-293T, 24 h
in vitro = conditions: human
EBOV-GFP = assay type: cell-based, Ebola virus
EBOV minigenome activity [4] = assay type: cell-based, Ebola virus

Structure (SMILES) | % inhibition in screen (EBOV minigenome activity [1]) | SI (CC50/IC50) (EBOV minigenome activity [2]) | IC50 (EBOV minigenome activity [3]) | CC50 (in vitro) | further results
CC1=CC(=O)c2c(O)cccc2C1=O [plumbagin] | 98.3% | 0.823 | 919 nM | 0.756 µM | 
CO[C@H]1C=C[C@@]23c4cc5c(cc4CN(C[C@@H]2O)[C@H]3C1)OCO5 [crinamine] | 91.5% | >13.196 |  |  | IC50 (EBOV minigenome activity [2]): 3.79 µM; CC50 (HEK293T cells): > 50 µM
Nc1ncn([C@@H]2O[C@H](CO)[C@@H](O)[C@H]2O)c(=O)n1 [azacitidine] | 76.9% | >12.466 | 4010 nM | > 50 µM | 
Nc1ncnc2c1ncn2[C@@H]1O[C@H](CO)[C@@H](O)[C@@H]1O [vidarabine] | 56.1% |  | > 50000 nM | > 50 µM | 
COc1ccc(C[C@H](N)C(=O)N[C@H]2[C@@H](O)[C@H](n3cnc4c(N(C)C)ncnc43)O[C@@H]2CO)cc1 [puromycin hydrochloride] | 99.7% | 4.043 | 889 nM | 3.59 µM | 
COc1c(C)c2c(c(O)c1C/C=C(\C)CCC(=O)O)C(=O)OC2 [mycophenolic acid] | 90.5% |  | 316 nM | > 50 µM | reduction of virus replication (EBOV-GFP) (EBOV-GFP): 96%; effect of guanosine addition on inhibition of minigenome activity (EBOV minigenome activity [4]): rescued minigenome activity at all concentrations; cell death (cytotoxicity) (Vero E6 cells): little cell death
Cc1ccc(C)c(OCCCC(C)(C)C(=O)O)c1 [gemfobrozil] | 62.1% |  |  |  | IC50 (EBOV minigenome activity [2]): > 50 µM; CC50 (HEK293T cells): > 50 µM
CC[C@H]1CN2CCc3cc(OC)c(OC)cc3[C@@H]2C[C@@H]1C[C@H]1NCCc2cc(OC)c(OC)cc21 [emetine] | 98.3% |  | 1470 nM | > 50 µM | reduction of EBOV replication (EBOV-GFP) (EBOV-GFP): 99%; cytotoxicity (Vero E6 cells): cytotoxic at higher concentrations
CC(=O)O[C@@H]1C[C@H]2C(C)(C)C(=O)C=C[C@]2(C)[C@H]2CC[C@@]3(C)[C@H](c4ccoc4)OC(=O)[C@H]4O[C@]43[C@@]21C [gedunin] | 72.9% | 6.829 | 803 nM | 5.48 µM | reduction of virus replication (EBOV-GFP) (EBOV-GFP): 98%; cell death (cytotoxicity) (Vero E6 cells): little cell death
C[C@@]12C(=O)OC(=O)[C@]1(C)[C@H]1CC[C@@H]2O1 [cantharidin] | 87.3% | >4.415 | 11300 nM | > 50 µM | IC50 (EBOV minigenome activity [2]): 11.3 µM
C[C@@H]1C[C@@H]([C@H](O)CC2CC(=O)NC(=O)C2)C(=O)[C@@H](C)C1 [cycloheximide] | 97.9% |  | 608 nM | > 50 µM | reduction of EBOV replication (EBOV-GFP) (EBOV-GFP): 96%; cytotoxicity (Vero E6 cells): cytotoxic at higher concentrations
CC(C)=CCC[C@]1(C)C=Cc2c(O)c3c(c(CC=C(C)C)c2O1)O[C@]12C(=C[C@@H]4CC1C(C)(C)O[C@@]2(C/C=C(/C)C(N)=O)C4=O)C3=O [gambogic amide] | 100.0% | 0.45 | 1010 nM | 0.454 µM | 
C[C@]12CC[C@H]3[C@@H](CC[C@]4(O)C[C@@H](O)CC[C@]34C=O)[C@@]1(O)CC[C@@H]2C1=CC(=O)OC1 [strophanthidin] | 100.0% | 0.423 | 1160 nM | 0.491 µM | 
CN(C)CCOC(c1ccccc1)c1ccccc1.Cn1c(=O)c2[nH]c(Cl)nc2n(C)c1=O [dramamine] | 57.8% |  |  |  | IC50 (EBOV minigenome activity [2]): > 50 µM; CC50 (HEK293T cells): > 50 µM
O=c1cnn([C@@H]2O[C@H](CO)[C@@H](O)[C@H]2O)c(=O)[nH]1 [6-Azauridine] |  |  |  |  | inhibition at 7 µM (EBOV minigenome activity [1]; Zaire ebolavirus, 24 h, read-out: inhibition of minigenome activity (positive control)): ~70%
CC(=O)O[C@H]1C[C@H](O[C@H]2[C@@H](O)C[C@H](O[C@H]3[C@@H](O)C[C@H](O[C@H]4CC[C@@]5(C)[C@H](CC[C@@H]6[C@@H]5C[C@@H](O)[C@]5(C)[C@@H](C7=CC(=O)OC7)CC[C@]65O)C4)O[C@@H]3C)O[C@@H]2C)O[C@H](C)[C@H]1O[C@@H]1O[C@H](CO)[C@@H](O)[C@H](O)[C@H]1O [lanatoside C] | 100.0% | 0.694 | 255 nM | 0.177 µM | 
CC(=O)Oc1c2c(c(CC=C(C)C)c3c1C(=O)C1=C[C@@H]4CC5C(C)(C)OC(C/C=C(\C)C(=O)O)(C4=O)[C@@]15O3)OC(C)(CCC=C(C)C)C=C2 (stereo partly drawn) [acetyl isogambogic acid] | 99.0% | 0.983 | 2940 nM | 2.89 µM | 
C[C@H]1O[C@@H](O[C@H]2[C@@H](O)C[C@H](O[C@H]3[C@@H](O)C[C@H](O[C@H]4CC[C@@]5(C)[C@H](CC[C@@H]6[C@@H]5CC[C@]5(C)[C@@H](C7=CC(=O)OC7)CC[C@]65O)C4)O[C@@H]3C)O[C@@H]2C)C[C@H](O)[C@@H]1O [digitoxin] | 92.5% | 0.62 | 50 nM | 0.031 µM | 
O=c1[nH]cc(F)c(=O)[nH]1 [fluorouracil] |  |  | > 50000 nM | > 50 µM | 
CN(Cc1cnc2nc(N)nc(N)c2n1)c1ccc(C(=O)N[C@@H](CCC(=O)O)C(=O)O)cc1 [methotrexate] | 67.1% |  | > 50000 nM | > 50 µM | 
